Assay results published in patent US20210085640A1, “ACYLATED CATECHIN POLYPHENOLS AND METHODS OF THEIR USE FOR THE TREATMENT OF CANCER” (Flagship Pioneering Innovations V, Inc., priority 2018, published 2021).

How the values were obtained:
Assay type in all cases: cell-based
[1] = test system: PC-3 prostate cancer cells; test: Cancer cell survival (CellTiter-Glo), PC-3; details: Homo sapiens, PC-3 cells, 72 h; for viability at 0.101 µM: 101 nM; for viability at 0.101 µM / viability at 0.318 µM / viability at 1 µM / viability at 3 µM / viability at 10 µM / viability at 32 µM / viability at 100 µM / viability at 316 µM / viability at 1000 µM: read-out: Cell survival at given concentration; for viability at 0.318 µM: 318 nM
Procedure, shortened: (§1)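 Luminescent ATP read-out (CellTiter-Glo) after 72 h compound exposure at 37 C/5% CO2. Survival % is calculated against untreated cells minus medium background, and IC50 is taken from nine concentrations run in triplicate. Plating density was 4×10^3 cells/well with overnight attachment beforehand.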

[2] = test system: MCF7 breast cancer cells; test: Cancer cell survival (CellTiter-Glo), MCF7; details: Homo sapiens, 72 h; for viability at 0.101 µM: 101 nM; for viability at 0.101 µM / viability at 0.318 µM / viability at 1 µM / viability at 3 µM / viability at 10 µM / viability at 32 µM / viability at 100 µM / viability at 316 µM / viability at 1000 µM: read-out: Cell survival at given concentration; for viability at 0.318 µM: 318 nM
Procedure, shortened: as §1

[3] = test system: A-431 skin cancer cells; test: Cancer cell survival (CellTiter-Glo), A-431; details: Homo sapiens, A-431 cells, 72 h; for viability at 0.101 µM: 101 nM; for viability at 0.101 µM / viability at 0.318 µM / viability at 1 µM / viability at 3 µM / viability at 10 µM / viability at 32 µM / viability at 100 µM / viability at 316 µM / viability at 1000 µM: read-out: Cell survival at given concentration; for viability at 0.318 µM: 318 nM; for IC50: Table 9.1
Procedure, shortened: as §1

[4] = test system: HCT 116 colorectal cancer cells; test: Cancer cell survival (CellTiter-Glo), HCT 116; details: Homo sapiens, HCT 116 cells, 72 h; for viability at 0.101 µM: 101 nM; for viability at 0.101 µM / viability at 0.318 µM / viability at 1 µM / viability at 3 µM / viability at 10 µM / viability at 32 µM / viability at 100 µM / viability at 316 µM / viability at 1000 µM: read-out: Cell survival at given concentration; for viability at 0.318 µM: 318 nM; for IC50: Table 6.1
Procedure, shortened: as §1

[5] = test system: T24 bladder cancer cells; test: Cancer cell survival (CellTiter-Glo), T24; details: Homo sapiens; for viability at 0.101 µM: T-24, 101 nM; for viability at 0.101 µM / viability at 0.318 µM / viability at 1 µM / viability at 3 µM / viability at 10 µM / viability at 32 µM / viability at 100 µM / viability at 316 µM / viability at 1000 µM: 72 h, read-out: Cell survival at given concentration; for viability at 0.318 µM: T-24, 318 nM; for viability at 1 µM: T-24, 1 μM; for viability at 3 µM: T-24, 3 μM; for viability at 10 µM: T-24, 10 μM; for viability at 32 µM: T-24, 32 μM; for viability at 100 µM: T-24, 100 μM; for viability at 316 µM: T-24, 316 μM; for viability at 1000 µM: T-24, 1000 μM; for IC50: T-24, 72 h, Table 3.1, read-out: 1050
Procedure, shortened: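 Viability by CellTiter-Glo after 72 h compound treatment of T24 bladder cancer cells (4×10^3/well, plated the night before), nine concentration levels in triplicate. Percent survival normalised to untreated cells minus medium background, from which IC50 was determined.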

[6] = test system: A549 lung cancer cells; test: Cancer cell survival (CellTiter-Glo), A549; details: Homo sapiens, 72 h; for viability at 0.101 µM: 101 nM; for viability at 0.101 µM / viability at 0.318 µM / viability at 1 µM / viability at 3 µM / viability at 10 µM / viability at 32 µM / viability at 100 µM / viability at 316 µM / viability at 1000 µM: read-out: Cell survival at given concentration; for viability at 0.318 µM: 318 nM
Procedure, shortened: as §1

[7] = test system: AGS stomach cancer cells; test: Cancer cell survival (CellTiter-Glo), AGS; details: for viability at 0.101 µM / viability at 0.318 µM / viability at 1 µM / viability at 3 µM / viability at 10 µM / viability at 32 µM / viability at 100 µM / viability at 316 µM / viability at 1000 µM: 72 h; for viability at 0.101 µM: 101 nM; for viability at 0.101 µM / viability at 0.318 µM / viability at 316 µM / viability at 1000 µM: read-out: Cell survival at given concentration; for viability at 0.318 µM: 318 nM; for viability at 1 µM / viability at 3 µM / viability at 10 µM / viability at 32 µM / viability at 100 µM: Table 10.1, read-out: Cell survival at given concentration
Procedure, shortened: as §1

[8] = test system: Daudi lymphoma cancer cells; test: Cancer cell survival (CellTiter-Glo), Daudi; details: Homo sapiens, 72 h; for viability at 0.101 µM: 101 nM; for viability at 0.101 µM / viability at 0.318 µM / viability at 1 µM / viability at 3 µM / viability at 10 µM / viability at 32 µM / viability at 100 µM / viability at 316 µM / viability at 1000 µM: read-out: Cell survival at given concentration; for viability at 0.318 µM: 318 nM; for IC50: Table 4.1
Procedure, shortened: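 Daudi cells (4×10^3/well) were exposed for 72 h at 37 °C to nine concentrations of compound, added as 10× solutions spanning 1 μM–10 mM (fatty acids) or 100 nM–1 mM (others). CellTiter-Glo luminescence gave % survival versus untreated, medium-blank corrected; IC50 derived.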

SMILES: Oc1cc(O)c2c(c1)O[C@H](c1cc(O)c(O)c(O)c1)[C@H](O)C2 [EGC, epigallocatechin]
- viability at 0.101 µM [1]: 103%
- viability at 0.318 µM [1]: 99%
- viability at 1 µM [1]: 100%
- viability at 3 µM [1]: 101%
- viability at 10 µM [1]: 102%
- viability at 32 µM [1]: 98%
- viability at 100 µM [1]: 96%
- viability at 316 µM [1]: 96%
- viability at 1000 µM [1]: 36%
- IC50 ([1]; Table 8.1): 899 µM
- viability at 0.101 µM [2]: 93%
- viability at 0.318 µM [2]: 97%
- viability at 1 µM [2]: 97%
- viability at 3 µM [2]: 102%
- viability at 10 µM [2]: 92%
- viability at 32 µM [2]: 100%
- viability at 100 µM [2]: 90%
- viability at 316 µM [2]: 56%
- viability at 1000 µM [2]: 2%
- IC50 ([2]; Table 5.1): 355 µM
- viability at 0.101 µM [3]: 103%
- viability at 0.318 µM [3]: 103%
- viability at 1 µM [3]: 102%
- viability at 3 µM [3]: 102%
- viability at 10 µM [3]: 98%
- viability at 32 µM [3]: 96%
- viability at 100 µM [3]: 95%
- viability at 316 µM [3]: 60%
- viability at 1000 µM [3]: 0%
- IC50 [3]: 385 µM
- viability at 0.101 µM [4]: 99%
- viability at 0.318 µM [4]: 98%
- viability at 1 µM [4]: 100%
- viability at 3 µM [4]: 101%
- viability at 10 µM [4]: 99%
- viability at 32 µM [4]: 97%
- viability at 100 µM [4]: 1%
- viability at 316 µM [4]: 0%
- viability at 1000 µM [4]: 0%
- IC50 [4]: 50.3 µM
- viability at 0.101 µM [5]: 99%
- viability at 0.318 µM [5]: 103%
- viability at 1 µM [5]: 103%
- viability at 3 µM [5]: 101%
- viability at 10 µM [5]: 100%
- viability at 32 µM [5]: 84%
- viability at 100 µM [5]: 0%
- viability at 316 µM [5]: 0%
- viability at 1000 µM [5]: 0%
- IC50 [5]: 40 µM
- viability at 0.101 µM [6]: 98%
- viability at 0.318 µM [6]: 100%
- viability at 1 µM [6]: 100%
- viability at 3 µM [6]: 100%
- viability at 10 µM [6]: 94%
- viability at 32 µM [6]: 96%
- viability at 100 µM [6]: 94%
- viability at 316 µM [6]: 81%
- viability at 1000 µM [6]: 9%
- IC50 ([6]; Table 7.1): 640 µM
- viability at 0.101 µM [7]: 103%
- viability at 0.318 µM [7]: 103%
- viability at 1 µM [7]: 108%
- viability at 3 µM [7]: 105%
- viability at 10 µM [7]: 104%
- viability at 32 µM [7]: 104%
- viability at 100 µM [7]: 107%
- viability at 316 µM [7]: 80%
- viability at 1000 µM [7]: 8%
- IC50 ([7]; Table 10.1): 477 µM
- viability at 0.101 µM [8]: 100%
- viability at 0.318 µM [8]: 101%
- viability at 1 µM [8]: 101%
- viability at 3 µM [8]: 103%
- viability at 10 µM [8]: 102%
- viability at 32 µM [8]: 99%
- viability at 100 µM [8]: 0%
- viability at 316 µM [8]: 0%
- viability at 1000 µM [8]: 0%
- IC50 [8]: 47.5 µM

SMILES: O=c1cc(-c2ccc(O)cc2)oc2cc(O)cc(O)c12 [apigenin]
- viability at 0.101 µM [1]: 100%
- viability at 0.318 µM [1]: 100%
- viability at 1 µM [1]: 98%
- viability at 3 µM [1]: 102%
- viability at 10 µM [1]: 107%
- viability at 32 µM [1]: 98%
- viability at 100 µM [1]: 82%
- viability at 316 µM [1]: 72%
- viability at 1000 µM [1]: 70%
- viability at 0.101 µM [2]: 98%
- viability at 0.318 µM [2]: 99%
- viability at 1 µM [2]: 98%
- viability at 3 µM [2]: 100%
- viability at 10 µM [2]: 102%
- viability at 32 µM [2]: 89%
- viability at 100 µM [2]: 82%
- viability at 316 µM [2]: 76%
- viability at 1000 µM [2]: 73%
- viability at 0.101 µM [3]: 101%
- viability at 0.318 µM [3]: 100%
- viability at 1 µM [3]: 100%
- viability at 3 µM [3]: 102%
- viability at 10 µM [3]: 100%
- viability at 32 µM [3]: 83%
- viability at 100 µM [3]: 58%
- viability at 316 µM [3]: 47%
- viability at 1000 µM [3]: 45%
- IC50 [3]: 178 µM
- viability at 0.101 µM [4]: 99%
- viability at 0.318 µM [4]: 100%
- viability at 1 µM [4]: 100%
- viability at 3 µM [4]: 99%
- viability at 10 µM [4]: 98%
- viability at 32 µM [4]: 60%
- viability at 100 µM [4]: 32%
- viability at 316 µM [4]: 19%
- viability at 1000 µM [4]: 15%
- IC50 [4]: 45.8 µM
- viability at 0.101 µM [5]: 98%
- viability at 0.318 µM [5]: 100%
- viability at 1 µM [5]: 102%
- viability at 3 µM [5]: 105%
- viability at 10 µM [5]: 98%
- viability at 32 µM [5]: 79%
- viability at 100 µM [5]: 60%
- viability at 316 µM [5]: 42%
- viability at 1000 µM [5]: 32%
- IC50 [5]: 161 µM
- viability at 0.101 µM [6]: 101%
- viability at 0.318 µM [6]: 102%
- viability at 1 µM [6]: 102%
- viability at 3 µM [6]: 98%
- viability at 10 µM [6]: 102%
- viability at 32 µM [6]: 100%
- viability at 100 µM [6]: 82%
- viability at 316 µM [6]: 67%
- viability at 1000 µM [6]: 62%
- viability at 0.101 µM [7]: 99%
- viability at 0.318 µM [7]: 102%
- viability at 1 µM [7]: 104%
- viability at 3 µM [7]: 101%
- viability at 10 µM [7]: 106%
- viability at 32 µM [7]: 102%
- viability at 100 µM [7]: 89%
- viability at 316 µM [7]: 71%
- viability at 1000 µM [7]: 64%
- viability at 0.101 µM [8]: 97%
- viability at 0.318 µM [8]: 96%
- viability at 1 µM [8]: 101%
- viability at 3 µM [8]: 101%
- viability at 10 µM [8]: 103%
- viability at 32 µM [8]: 86%
- viability at 100 µM [8]: 60%
- viability at 316 µM [8]: 47%
- viability at 1000 µM [8]: 44%
- IC50 [8]: 186 µM
